Measured values: ChEMBL document CHEMBL5303765, “Data for DCP probe BAY-7081” (2023)

Key:
[1] = biological target: T1, cGMP-dependent 3',5'-cyclic phosphodiesterase (Homo sapiens, UniProt O00408); assay: Panlabs assay PDE2A; parameters: compound concentration 10 uM; conditions: at 10 µM
[2] = biological target: T2, cGMP-specific 3',5'-cyclic phosphodiesterase (Homo sapiens, UniProt O76074); assay: Panlabs assay PDE5A; parameters: compound concentration 10 uM; conditions: at 10 µM
[3] = biological target: T1, cGMP-dependent 3',5'-cyclic phosphodiesterase; assay: 3H-cAMP and 3H-cGMP Scintillation Proximity Assay (PDE2A)
[4] = biological target: cGMP-inhibited 3',5'-cyclic phosphodiesterase 3B (Homo sapiens, UniProt Q13370); assay: 3H-cAMP and 3H-cGMP Scintillation Proximity Assay (PDE3B)
Sequence of cGMP-inhibited 3',5'-cyclic phosphodiesterase 3B (Q13370 whole entry): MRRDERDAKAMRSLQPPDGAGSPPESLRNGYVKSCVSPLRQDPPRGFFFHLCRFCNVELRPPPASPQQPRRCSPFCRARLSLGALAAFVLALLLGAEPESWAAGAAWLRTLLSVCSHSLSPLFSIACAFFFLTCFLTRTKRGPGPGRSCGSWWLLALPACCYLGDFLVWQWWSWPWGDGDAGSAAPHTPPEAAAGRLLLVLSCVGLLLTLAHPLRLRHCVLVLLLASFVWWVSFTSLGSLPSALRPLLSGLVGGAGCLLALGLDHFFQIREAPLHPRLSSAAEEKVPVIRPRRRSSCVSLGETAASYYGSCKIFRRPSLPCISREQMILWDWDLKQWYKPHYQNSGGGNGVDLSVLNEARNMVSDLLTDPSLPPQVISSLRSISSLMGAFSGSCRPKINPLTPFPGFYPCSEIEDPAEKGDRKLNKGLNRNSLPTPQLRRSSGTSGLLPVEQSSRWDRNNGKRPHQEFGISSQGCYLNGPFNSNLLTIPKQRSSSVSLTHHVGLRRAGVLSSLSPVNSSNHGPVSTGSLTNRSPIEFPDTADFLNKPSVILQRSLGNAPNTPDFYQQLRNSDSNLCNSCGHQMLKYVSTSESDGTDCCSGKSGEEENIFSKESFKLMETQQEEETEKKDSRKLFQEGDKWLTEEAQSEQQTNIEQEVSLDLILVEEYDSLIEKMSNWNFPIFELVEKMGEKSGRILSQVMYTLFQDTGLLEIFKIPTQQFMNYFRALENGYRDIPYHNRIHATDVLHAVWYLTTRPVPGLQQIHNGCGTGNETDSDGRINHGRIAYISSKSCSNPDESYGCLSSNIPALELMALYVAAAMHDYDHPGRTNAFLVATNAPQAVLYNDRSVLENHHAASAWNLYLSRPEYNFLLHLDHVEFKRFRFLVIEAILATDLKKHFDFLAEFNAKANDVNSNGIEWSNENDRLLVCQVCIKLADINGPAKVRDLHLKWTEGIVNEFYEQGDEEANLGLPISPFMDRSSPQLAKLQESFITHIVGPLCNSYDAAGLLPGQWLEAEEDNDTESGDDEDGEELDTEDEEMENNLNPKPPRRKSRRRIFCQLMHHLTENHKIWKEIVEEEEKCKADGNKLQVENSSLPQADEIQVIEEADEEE

[5] = biological target: T2, cGMP-specific 3',5'-cyclic phosphodiesterase; assay: 3H-cAMP and 3H-cGMP Scintillation Proximity Assay (PDE5A)
[6] = biological target: Acetylcholinesterase (Homo sapiens) (UniProt P22303); assay: Cholinesterase, Acetyl, ACES Eurofins Panlabs panel; conditions: Compound concentration 10.0 uM
[7] = biological target: Monoamine oxidase A (MAO-A) (Homo sapiens, UniProt P21397); assay: Monoamine Oxidase MAO-A Eurofins Panlabs panel; conditions: compound concentration 10 uM
Sequence of Monoamine oxidase A (MAO-A) (P21397 whole entry): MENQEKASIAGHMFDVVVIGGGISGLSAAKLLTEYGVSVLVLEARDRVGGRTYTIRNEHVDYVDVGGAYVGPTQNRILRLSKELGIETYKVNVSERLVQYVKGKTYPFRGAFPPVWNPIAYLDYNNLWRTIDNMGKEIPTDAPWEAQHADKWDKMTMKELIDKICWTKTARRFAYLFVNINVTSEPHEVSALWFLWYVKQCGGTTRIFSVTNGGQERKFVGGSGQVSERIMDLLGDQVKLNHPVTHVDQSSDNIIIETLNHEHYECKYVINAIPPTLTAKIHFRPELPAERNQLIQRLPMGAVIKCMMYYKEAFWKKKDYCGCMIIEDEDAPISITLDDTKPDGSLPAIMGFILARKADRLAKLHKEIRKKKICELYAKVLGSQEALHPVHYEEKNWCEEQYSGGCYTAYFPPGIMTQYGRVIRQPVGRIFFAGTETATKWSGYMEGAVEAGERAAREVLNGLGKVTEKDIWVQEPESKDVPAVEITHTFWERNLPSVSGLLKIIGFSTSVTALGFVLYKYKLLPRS

[8] = biological target: Nitric oxide synthase 1 (Rattus norvegicus) (UniProt P29476); assay: Nitric Oxide Synthase, Neuronal (nNOS) Eurofins Panlabs panel; conditions: Compound concentration 10.0 uM
[9] = biological target: Adenosine receptor A1 (Homo sapiens) (UniProt P30542); assay: Adenosine A1 Eurofins Panlabs panel; conditions: Compound concentration 10.0 uM
Sequence of Adenosine receptor A1 (Homo sapiens) (P30542 whole entry): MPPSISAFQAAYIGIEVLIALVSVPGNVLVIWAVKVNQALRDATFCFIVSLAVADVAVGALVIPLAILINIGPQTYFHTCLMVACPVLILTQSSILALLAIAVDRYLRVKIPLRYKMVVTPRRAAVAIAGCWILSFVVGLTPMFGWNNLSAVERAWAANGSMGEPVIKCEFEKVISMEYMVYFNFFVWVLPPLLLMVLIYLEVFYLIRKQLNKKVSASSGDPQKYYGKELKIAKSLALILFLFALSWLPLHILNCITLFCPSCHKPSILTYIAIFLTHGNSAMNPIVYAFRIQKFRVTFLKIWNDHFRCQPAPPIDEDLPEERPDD

[10] = biological target: Adenosine receptor A2a (Homo sapiens) (UniProt P29274); assay: Adenosine A2A Eurofins Panlabs panel; conditions: Compound concentration 10.0 uM
Sequence of Adenosine receptor A2a (Homo sapiens) (P29274 whole entry): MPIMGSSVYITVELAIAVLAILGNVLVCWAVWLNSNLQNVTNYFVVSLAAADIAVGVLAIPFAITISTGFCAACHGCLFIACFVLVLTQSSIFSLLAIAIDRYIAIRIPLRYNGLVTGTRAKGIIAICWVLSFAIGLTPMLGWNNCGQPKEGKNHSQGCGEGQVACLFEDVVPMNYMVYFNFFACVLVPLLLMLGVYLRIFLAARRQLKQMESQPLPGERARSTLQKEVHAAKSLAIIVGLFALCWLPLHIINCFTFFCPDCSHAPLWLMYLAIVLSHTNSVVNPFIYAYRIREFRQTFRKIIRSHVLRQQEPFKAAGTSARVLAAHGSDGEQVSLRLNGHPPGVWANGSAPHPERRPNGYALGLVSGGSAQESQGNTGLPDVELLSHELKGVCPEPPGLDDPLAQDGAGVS

[11] = biological target: B1 bradykinin receptor (Homo sapiens) (UniProt P46663); assay: Bradykinin B1 Eurofins Panlabs panel; conditions: Compound concentration 10.0 uM
[12] = biological target: T3, D(4) dopamine receptor (Homo sapiens) (UniProt P21917); assay: Dopamine D4.2 Eurofins Panlabs panel; conditions: Compound concentration 10.0 uM
T3 sequence (whole entry): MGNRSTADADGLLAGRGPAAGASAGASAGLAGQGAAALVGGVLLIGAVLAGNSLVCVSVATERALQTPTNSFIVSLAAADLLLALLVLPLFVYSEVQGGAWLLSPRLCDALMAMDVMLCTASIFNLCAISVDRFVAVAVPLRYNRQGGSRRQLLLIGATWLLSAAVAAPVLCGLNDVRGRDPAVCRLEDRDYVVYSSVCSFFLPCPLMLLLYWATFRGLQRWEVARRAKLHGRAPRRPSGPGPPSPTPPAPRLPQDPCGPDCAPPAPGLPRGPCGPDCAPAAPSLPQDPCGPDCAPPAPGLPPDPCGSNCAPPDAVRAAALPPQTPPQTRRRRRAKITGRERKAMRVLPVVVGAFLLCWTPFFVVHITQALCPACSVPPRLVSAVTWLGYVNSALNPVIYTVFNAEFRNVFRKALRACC

[13] = biological target: Glucocorticoid receptor (Homo sapiens) (UniProt P04150); assay: Glucocorticoid Eurofins Panlabs panel; conditions: Compound concentration 10.0 uM
[14] = biological target: Glutamate NMDA receptor (Rattus norvegicus) (UniProt P35439+Q00959+Q00960+Q00961+Q62645+Q8VHN2+Q9R1M7); assay: Glutamate, NMDA, Agonism Eurofins Panlabs panel; assay type: protein-complex assay; conditions: Compound concentration 10.0 uM
[15] = biological target: Insulin receptor (Rattus norvegicus) (UniProt P15127); assay: Insulin Eurofins Panlabs panel; conditions: Compound concentration 10.0 uM
[16] = biological target: T4, Muscarinic acetylcholine receptor M1 (Homo sapiens) (UniProt P11229); assay: Muscarinic M1 Eurofins Panlabs panel; conditions: Compound concentration 10.0 uM
T4 sequence (whole entry): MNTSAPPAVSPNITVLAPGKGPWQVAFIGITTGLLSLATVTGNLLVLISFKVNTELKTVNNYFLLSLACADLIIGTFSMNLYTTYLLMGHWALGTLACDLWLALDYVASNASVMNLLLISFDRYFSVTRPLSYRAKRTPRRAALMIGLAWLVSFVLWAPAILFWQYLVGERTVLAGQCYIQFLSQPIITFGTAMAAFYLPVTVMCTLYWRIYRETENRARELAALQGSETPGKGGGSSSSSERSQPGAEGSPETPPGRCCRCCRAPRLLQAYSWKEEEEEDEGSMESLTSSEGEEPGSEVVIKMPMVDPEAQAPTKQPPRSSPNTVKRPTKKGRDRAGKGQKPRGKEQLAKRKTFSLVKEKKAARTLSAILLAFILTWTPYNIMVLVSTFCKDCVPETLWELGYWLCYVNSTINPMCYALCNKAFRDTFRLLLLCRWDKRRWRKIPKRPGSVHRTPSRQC

[17] = biological target: Kappa-type opioid receptor (Homo sapiens) (UniProt P41145); assay: Opiate kappa(OP2, KOP) Eurofins Panlabs panel; conditions: Compound concentration 10.0 uM
Mu-type opioid receptor = Mu-type opioid receptor (Homo sapiens, UniProt P35372); assay: Opiate ??(OP3, MOP) Eurofins Panlabs panel; conditions: Compound concentration 10.0 uM
[18] = biological target: P2X receptor (Rattus norvegicus) (UniProt P51579+P49653+P51578+Q64663+P47824+P51577+P49654); assay: Purinergic P2X Eurofins Panlabs panel; assay type: protein assay; conditions: concentration not given here
[19] = biological target: T5, 5-hydroxytryptamine receptor 3A (Homo sapiens) (UniProt P46098); assay: Serotonin (5-Hydroxytryptamine) 5-HT3 Eurofins Panlabs panel; conditions: Compound concentration 10.0 uM
T5 sequence (whole entry): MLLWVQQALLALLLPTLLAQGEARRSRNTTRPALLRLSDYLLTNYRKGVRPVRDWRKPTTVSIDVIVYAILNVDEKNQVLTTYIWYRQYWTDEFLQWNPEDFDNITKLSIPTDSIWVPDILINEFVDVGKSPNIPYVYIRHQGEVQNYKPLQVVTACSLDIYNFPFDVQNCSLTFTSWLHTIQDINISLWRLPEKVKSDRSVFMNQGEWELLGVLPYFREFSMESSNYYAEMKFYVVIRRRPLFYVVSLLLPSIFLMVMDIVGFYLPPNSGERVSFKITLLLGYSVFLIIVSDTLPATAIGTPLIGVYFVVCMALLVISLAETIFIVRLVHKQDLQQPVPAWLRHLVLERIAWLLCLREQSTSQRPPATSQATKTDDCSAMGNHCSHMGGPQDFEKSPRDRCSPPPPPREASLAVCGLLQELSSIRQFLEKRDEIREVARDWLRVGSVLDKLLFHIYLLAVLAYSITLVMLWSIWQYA

[20] = biological target: 5-hydroxytryptamine receptor 4 (Cavia porcellus) (UniProt O70528); assay: Serotonin (5-Hydroxytryptamine) 5-HT4 Eurofins Panlabs panel; conditions: Compound concentration 10.0 uM
[21] = biological target: Sodium-dependent dopamine transporter (Homo sapiens) (UniProt Q01959); assay: Transporter, Dopamine (DAT) Eurofins Panlabs panel; conditions: Compound concentration 10.0 uM
Sequence of Sodium-dependent dopamine transporter (Homo sapiens) (Q01959 whole entry): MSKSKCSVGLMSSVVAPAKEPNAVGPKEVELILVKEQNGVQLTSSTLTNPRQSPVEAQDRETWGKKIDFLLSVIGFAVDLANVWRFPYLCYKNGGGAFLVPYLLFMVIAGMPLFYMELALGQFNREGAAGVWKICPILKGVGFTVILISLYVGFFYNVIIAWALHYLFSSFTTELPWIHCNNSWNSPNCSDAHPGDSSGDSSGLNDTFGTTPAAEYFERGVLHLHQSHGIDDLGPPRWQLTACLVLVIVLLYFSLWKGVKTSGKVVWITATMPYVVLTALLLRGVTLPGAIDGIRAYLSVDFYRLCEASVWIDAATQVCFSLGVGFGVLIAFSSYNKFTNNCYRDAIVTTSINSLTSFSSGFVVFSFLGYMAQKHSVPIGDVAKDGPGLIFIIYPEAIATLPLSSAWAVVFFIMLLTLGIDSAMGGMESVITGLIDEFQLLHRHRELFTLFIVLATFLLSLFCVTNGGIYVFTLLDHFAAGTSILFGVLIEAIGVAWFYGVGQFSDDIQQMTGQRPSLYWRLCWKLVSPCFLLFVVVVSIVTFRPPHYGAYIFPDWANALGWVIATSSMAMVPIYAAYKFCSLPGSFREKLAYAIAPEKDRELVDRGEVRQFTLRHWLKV

[22] = biological target: Sodium-dependent serotonin transporter (Homo sapiens) (UniProt P31645); assay: Transporter, Serotonin (5-Hydroxytryptamine) (SERT) Eurofins Panlabs panel; conditions: Compound concentration 10.0 uM
Sequence of Sodium-dependent serotonin transporter (Homo sapiens) (P31645 whole entry, looked up): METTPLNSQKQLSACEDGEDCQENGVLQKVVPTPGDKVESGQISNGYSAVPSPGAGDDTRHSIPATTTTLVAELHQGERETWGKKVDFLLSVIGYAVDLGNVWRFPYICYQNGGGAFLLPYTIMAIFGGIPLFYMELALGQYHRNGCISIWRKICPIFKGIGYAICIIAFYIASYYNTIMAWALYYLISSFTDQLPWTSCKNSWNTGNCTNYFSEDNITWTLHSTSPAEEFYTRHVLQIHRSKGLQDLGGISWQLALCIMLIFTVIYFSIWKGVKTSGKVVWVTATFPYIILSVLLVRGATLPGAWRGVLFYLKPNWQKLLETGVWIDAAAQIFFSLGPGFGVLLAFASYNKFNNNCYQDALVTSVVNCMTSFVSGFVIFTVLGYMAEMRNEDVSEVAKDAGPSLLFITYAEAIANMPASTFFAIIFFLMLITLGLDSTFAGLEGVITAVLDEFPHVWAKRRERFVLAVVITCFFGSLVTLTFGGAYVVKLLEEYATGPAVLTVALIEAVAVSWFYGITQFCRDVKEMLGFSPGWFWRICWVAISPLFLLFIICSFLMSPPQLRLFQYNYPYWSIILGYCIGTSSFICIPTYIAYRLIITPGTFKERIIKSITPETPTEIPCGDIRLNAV

[23] = biological target: L-type calcium channel, benzothiazepine site (Rattus norvegicus, UniProt P22002+P27732+Q02485); assay: Calcium Channel L-Type, Benzothiazepine Eurofins Panlabs panel; assay type: protein assay; conditions: compound concentration 10 uM
[24] = biological target: hERG (KCNH2) potassium channel (Homo sapiens, UniProt Q12809); assay: Potassium Channel hERG Eurofins Panlabs panel; conditions: compound concentration 10 uM
[25] = biological target: Sodium-dependent dopamine transporter (Homo sapiens) (UniProt Q01959); assay: Uptake, Dopamine - Antagonist Eurofins Panlabs panel; conditions: Compound concentration 10.0 uM
[26] = biological target: Alpha-1A adrenergic receptor (Homo sapiens) (UniProt P35348); conditions: Compound concentration 10.0 uM
Sequence of Alpha-1A adrenergic receptor (Homo sapiens) (P35348 whole entry): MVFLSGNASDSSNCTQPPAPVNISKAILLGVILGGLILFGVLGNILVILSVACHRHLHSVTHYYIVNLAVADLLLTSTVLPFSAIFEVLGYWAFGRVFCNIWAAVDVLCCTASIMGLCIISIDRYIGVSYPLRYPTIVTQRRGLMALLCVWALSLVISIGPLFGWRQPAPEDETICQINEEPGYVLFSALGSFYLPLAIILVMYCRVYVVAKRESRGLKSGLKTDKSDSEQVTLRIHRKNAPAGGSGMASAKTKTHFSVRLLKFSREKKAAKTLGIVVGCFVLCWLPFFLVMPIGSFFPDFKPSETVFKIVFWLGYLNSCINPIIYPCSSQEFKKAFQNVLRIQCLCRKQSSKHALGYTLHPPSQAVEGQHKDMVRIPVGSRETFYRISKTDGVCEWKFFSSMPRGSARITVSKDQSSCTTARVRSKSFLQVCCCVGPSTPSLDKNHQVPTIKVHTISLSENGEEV

T1 sequence (O00408 whole entry): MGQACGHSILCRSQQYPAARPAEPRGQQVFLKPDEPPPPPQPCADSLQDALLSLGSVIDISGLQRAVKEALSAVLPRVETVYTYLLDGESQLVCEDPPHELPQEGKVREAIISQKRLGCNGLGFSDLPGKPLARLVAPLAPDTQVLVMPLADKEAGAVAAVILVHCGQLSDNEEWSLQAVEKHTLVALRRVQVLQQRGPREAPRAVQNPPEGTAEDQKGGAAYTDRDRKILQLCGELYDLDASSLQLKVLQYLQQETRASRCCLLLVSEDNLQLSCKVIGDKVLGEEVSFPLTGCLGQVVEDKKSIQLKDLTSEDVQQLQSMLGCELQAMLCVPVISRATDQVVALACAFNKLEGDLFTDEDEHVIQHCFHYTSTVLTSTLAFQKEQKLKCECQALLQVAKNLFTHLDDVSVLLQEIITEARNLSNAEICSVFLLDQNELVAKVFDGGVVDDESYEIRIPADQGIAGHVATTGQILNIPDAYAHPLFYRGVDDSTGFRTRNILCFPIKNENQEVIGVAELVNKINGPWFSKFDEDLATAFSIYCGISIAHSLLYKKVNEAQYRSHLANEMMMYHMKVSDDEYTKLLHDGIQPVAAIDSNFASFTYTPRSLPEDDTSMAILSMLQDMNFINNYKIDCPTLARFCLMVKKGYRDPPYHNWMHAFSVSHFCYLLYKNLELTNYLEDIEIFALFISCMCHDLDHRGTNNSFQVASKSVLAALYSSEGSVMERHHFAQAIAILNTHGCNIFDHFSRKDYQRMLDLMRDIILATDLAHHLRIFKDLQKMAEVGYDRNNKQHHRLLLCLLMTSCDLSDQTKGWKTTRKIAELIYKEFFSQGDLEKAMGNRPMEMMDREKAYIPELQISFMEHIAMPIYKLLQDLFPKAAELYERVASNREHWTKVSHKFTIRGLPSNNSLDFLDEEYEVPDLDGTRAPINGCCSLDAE

## CCC[C@@H]1CNCc2c1[nH]c(=O)c(C#N)c2N1CCC2(CC1)CC2
[1]
  inhibition: 3.5%
[2]
  inhibition: 12.2%

## CCC[C@H]1CNCc2c1[nH]c(=O)c(C#N)c2N1CCC2(CC1)CC2
[3]
  IC50: > 10 µM (not active)
[4]
  IC50: > 10 µM (not active)
[5]
  IC50: 2.98 µM (not active)
[6]
  inhibition: 5%
[7]
  inhibition at 10 µM: 2%
[8]
  inhibition: -2%
[9]
  inhibition: 16%
[10]
  inhibition: 2%
[11]
  inhibition: 1%
[12]
  inhibition: 2%
[13]
  inhibition: 4.67%
[14]
  inhibition: 6%
[15]
  inhibition: 10%
[16]
  inhibition: -4%
[17]
  inhibition: 24.2%
Mu-type opioid receptor
  inhibition: 18.4%
[18]
  inhibition: 0%
[19]
  inhibition: 3.75%
[20]
  inhibition: 22%
[21]
  inhibition: 19%
[22]
  inhibition: 3.5%
[23]
  inhibition at 10 µM: 18.5%
[24]
  inhibition at 10 µM: 18.5%
[25]
  inhibition: 22%
[26]
  inhibition: 6.38%
